Data set [1] relates to advanced pancreatic cancer. As to conditions: dalteparin added to gemcitabine; cited from earlier work.
The test system of a further data set is ovarian cancer. The conditions noted are these: with standard chemotherapy regimen; cited from earlier work.
The test system of data set [2] is advanced prostate, lung, or pancreatic cancer. The conditions noted are these: added to existing standard of care protocols; cited from earlier work.
Data set [3] can be described thus: clotting time in an aPTT assay after administration to a subject. The class given is in vivo. The conditions noted are these: ODSH at a dose equivalent in weight to a fully-anticoagulating dose of unfractionated heparin; UFH at fully anticoagulant dose; normal about 27 to 35 seconds. An excerpt:
In contrast to unfractionated heparin, ODSH is substantially non-anticoagulating: administered to a subject at a dose that is equivalent in weight to a fully-anticoagulating dose of unfractionated heparin, the clotting time measured in an aPTT assay is no greater than 45 seconds, and typically in the upper range of normal, where normal clotting time ranges from about 27 to 35 seconds. By comparison, unfractionated heparin administered to a subject at a fully anticoagulant dose causes time to clot to range from about 60 to about 85 seconds in an aPTT assay.

The target of the next data set is anti-thrombin III (Homo sapiens, UniProt P01008). As to the kind of experiment: affinity for anti-thrombin III. The class given is binding. The conditions noted are these: for Kd: measured as described in Rao et al.; for Kd for anti-thrombin III: same Kd as mass concentration.
Chain of anti-thrombin III (P01008 33-464, species assumed): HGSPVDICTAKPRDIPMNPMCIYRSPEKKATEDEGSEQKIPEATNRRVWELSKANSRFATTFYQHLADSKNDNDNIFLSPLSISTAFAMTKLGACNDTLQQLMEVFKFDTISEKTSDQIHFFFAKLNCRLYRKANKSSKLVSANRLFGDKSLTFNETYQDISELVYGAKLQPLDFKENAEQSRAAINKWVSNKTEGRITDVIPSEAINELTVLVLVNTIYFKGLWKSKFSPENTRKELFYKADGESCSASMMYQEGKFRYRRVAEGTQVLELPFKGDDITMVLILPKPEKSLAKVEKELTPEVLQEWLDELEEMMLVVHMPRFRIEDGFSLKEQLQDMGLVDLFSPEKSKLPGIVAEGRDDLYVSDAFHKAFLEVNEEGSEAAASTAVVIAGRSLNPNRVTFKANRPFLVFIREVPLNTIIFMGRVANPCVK
The subject of data set [4] is acute myeloid leukemia (AML). Description: single arm open-label clinical study of ODSH with idarubicin + cytarabine induction (NCT02056782). The class given is in vivo, human. How it is done:
A single arm open-label clinical study was conducted at multiple trial sites (University of Utah, Georgia Regents University, and Medical University of South Carolina) in patients with newly diagnosed acute myeloid leukemia (AML) to confirm that ODSH could accelerate platelet and white blood cell (WBC) recovery in patients receiving induction chemotherapy with a regimen known to have myelosuppressive side effects.
All patients received the following standard (“7+3”) induction regimen, • Idarubicin (12 mg/m^2/day) by short intravenous infusion on Days 1, 2, and 3; and • Cytarabine (100 mg/m^2) as a continuous intravenous infusion over 24 hours (Days 1 through 7).
All patients also received CX-01, a substantially 2-O, 3-O-desulfated heparin derivative (ODSH) as an intravenous bolus immediately after the idarubicin dose on Day 1, at a dose of 4 mg/kg, followed by a continuous intravenous infusion at a dose of 0.25 mg/kg/hr for a total of 7 days (Days 1 through 7).
Twelve patients were enrolled. The median age was 56 (range 22-74). Based on cytogenetic, molecular, or antecedent hematologic disorder, 9 of 12 patients fell into the intermediate or poor risk categories. […] Complete remission at the end of the induction cycle was assessed using International Working Group (IWG) criteria (see, e.g., Cheson et al., J. Clin. Oncol. 21:4642 (2003)).
Platelet, neutrophil, and WBC recovery of the ODSH-treated AML patients was compared with the recovery in historical control patients receiving identical doses of idarubicin and cytarabine as induction therapy in a previous clinical study comparing idarubicin and daunorubicin in combination with cytarabine (Vogler et al., J. Clin. Oncol. 10(7):1103-11(1992)). In the previous study, 101 patients received idarubicin 12 mg/m^2 on days 1, 2, and 3 and cytarabine 100 mg/m^2 on days 1-7. Growth factors were not administered to any patient.

The next data set concerns bone marrow. As to the kind of experiment: serial bone marrow biopsies in the AML trial. The class given is in vivo, human. The conditions noted are these: one patient treated with ODSH, cytarabine and idarubicin; for bone marrow biopsy appearance at Day 14 of the induction cycle: FIG. 2B; for bone marrow biopsy appearance at Day 28: FIG. 2C. The text has this:
Bone marrow biopsies were obtained in the AML, trial described in Example 1.
FIGS. 2A-2C are photomicrographs of biopsies from one of the patients.

The nature of data set [5]: stability testing of CX-01 infusion solutions. The class given is physicochemical. As to conditions: room temperature; diluted in 0.9% sodium chloride. How it is done:
Based upon current stability testing data, CX-01 infusion solutions expire at room temperature 72 hours after preparation and should be stored in a refrigerator (2 to 8° C.) until used.

For data set [6], the system named is metastatic adenocarcinoma of the pancreas. The conditions noted are these: cited from earlier work.
Another data set has as its system human pancreatic cancer. The conditions noted are these: regimen that includes gemcitabine; cited from earlier work.
The conditions of data set [7]: comparator heparin; Rao et al.; cited from earlier work.
In a further data set the target is T1, Xa (Homo sapiens, UniProt P00742).
T1 construct: an assay carried out using plasma treated with Russell viper venom; from tissue; host or cells: plasma
T1 sequence (P01008 33-464 partner): as the sequence (P01008 33-464, species assumed) above
T1 sequence (P00742 235-488 limits assumed): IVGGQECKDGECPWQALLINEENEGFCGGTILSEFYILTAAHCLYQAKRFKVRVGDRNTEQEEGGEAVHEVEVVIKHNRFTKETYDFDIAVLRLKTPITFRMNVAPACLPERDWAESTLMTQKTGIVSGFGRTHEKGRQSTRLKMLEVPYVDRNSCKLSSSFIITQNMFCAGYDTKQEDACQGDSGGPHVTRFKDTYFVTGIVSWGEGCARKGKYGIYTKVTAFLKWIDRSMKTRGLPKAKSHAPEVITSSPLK
The conditions noted are these: comparator heparin; Rao et al.; cited from earlier work.

For the next data set, the target named is IIa (Homo sapiens, UniProt P00734+P01008). As to conditions: comparator heparin; Rao et al.; cited from earlier work.
The next data set relates to pancreatic cancer model. The conditions noted are these: in vivo; cited from earlier work.
Where [8] appears, read: median follow-up of 14.2 months.
[9] abbreviates: ODSH added to gemcitabine plus nab-paclitaxel.

Entries after “also recorded” stand apart in the source; their conditions may differ.

For the substance dalteparin, the survival result in [1] is on record as “no statistically significant improvement in survival”. Also, the outcome in the data set with ovarian cancer is recorded as “could not be shown to improve outcome”.
Regarding nadroparin, the survival benefit result in data set [2] is “no statistically significant survival benefit”.
By Kd is commonly meant the constant that tells how readily two partners part at equilibrium. Low readings indicate tighter binding, high ones weaker binding. As for “substantially 2-O, 3-O desulfated heparin [ODSH]”, in data set [3], the “clotting time measured in an aPTT assay” value is no more than 45 s. Also, at anti-thrombin III, the Kd is roughly 339 µM and the “Kd for anti-thrombin III” value is roughly 4000 µg/mL. Also, the “patients remaining in complete remission” value in [4] (5-13 months after having been enrolled in the study) is given as 10 of the 12. Moreover, the “patients with primary AML achieving complete remission at the end of a single induction cycle” value in [4] (11 patients with primary AML) was determined as 11. For the same substance, the “myelosuppressive side effects of the idarubicin+cytarabine regimen” value in data set [4] (AML patients) is recorded as “significantly attenuated the myelosuppressive side effects”. Moreover, the “Complete response with first induction cycle (morphologic complete remission, IWG criteria)” value in [4] (AML patients, n = 12, 11 out of 12) is 92%. In data set [4] (setting [8]), the “median OS” value is reported as no less than 13.6 months and the “median event free survival” value came to 13.5 months. For the same substance, the “median time to relapse” value in [4] (six patients who relapsed) is given as 8 months. Besides, in the data set with bone marrow, the “bone marrow biopsy appearance at Day 14 of the induction cycle” value is reported as “elimination of most normal bone marrow cells as well as leukemia cells”; the “bone marrow biopsy appearance at Day 28” value is “no evidence of leukemic cells and restoration of normal bone marrow appearance and function”. In the data set with bone marrow (listed as CX-01 ODSH), the “bone marrow biopsy appearance at Day 14 of the induction cycle” value was “significant depletion of normal bone marrow cells”; the “bone marrow biopsy appearance at Day 28” value was “no evidence of leukemia and restoration of normal bone marrow appearance and function”. In addition, in data set [5], the “expiry of infusion solutions after preparation” value is 72 h. Besides, in data set [6] (setting [9]), the overall survival entry is “did not provide a statistically significant increase; also recorded: no statistically significant benefit” and the progression-free survival entry is “did not provide a statistically significant increase; also recorded: no statistically significant benefit”. In data set [6] (U.S. Pat. No. 8,734,804), the “myelosuppressive side effects of the gemcitabine plus nab-paclitaxel regimen” value was “attenuate the myelosuppressive side effects”. The “efficacy of chemotherapy regimen in animal model” value in the data set with human pancreatic cancer is recorded as “improves the efficacy of a chemotherapy regimen; also recorded: sensitize cancer cells to chemotherapy”.
With unfractionated heparin, at anti-thrombin III, the Kd was determined as 1.56 µM and the “Kd for anti-thrombin III” value amounted to 22 µg/mL. In addition, in data set [7], the “anticoagulant activity in the USP anticoagulant assay” value is given as 165-190 U/mg. Besides, on Xa, the anti-Xa activity was 165-190 U/mg. Besides, the anti-IIa activity on IIa is given as 165-190 U/mg. In the data set on pancreatic cancer model, the potency of gemcitabine result is “enhances potency of gemcitabine”.

(Values after patent US10052346B2, “Treatment of myelodysplastic syndromes with 2-O and,or 3-O desulfated heparinoids” (Cantex Pharmaceuticals, Inc., priority 2015, dated 2018).)
